Experimental data published in article PMC8997241, “Structurally Various Sorbicillinoids From an Endophytic Fungus Acremonium citrinum SS-g13” (Frontiers in Microbiology, 2022).
“Also recorded” adds a separate entry of the source.

System: J774A.1 macrophages
Assay: Serum-mediated cholesterol efflux (BODIPY-cholesterol)
Type: cell-based
Details: compounds 10 µM, 24 h, then serum 6 h; pioglitazone 3 µM positive control

Structure (SMILES): C/C=C/C=C/C(O)=C1/C(=O)C(C)=C(O)[C@@]2(C)O[C@@]3(O)[C@@](C)(O)C(=O)C(C(=O)CC/C=C/C)=C(O)[C@@]3(C)[C@@H]12 [Compound 11, dihydrobisvertinolone]
- cholesterol efflux enhancing activity: significant cholesterol efflux enhancing activity; also recorded: exhibited cholesterol efflux enhancing activity
